Measurements from ChEMBL document CHEMBL3045355, “Synthesis of a New Series of 4-Aryl-1,4-Dihydropyridines with Calcium Channel Blocking and Vasodilatory Activity” (Med Chem Res, 2012).

Experiments:
[1] = molecular target: T1, Voltage-gated L-type calcium channel (Rattus norvegicus, UniProt P22002+Q02485+P27732); assay: Inhibition of L-type calcium channel in Rattus norvegicus Wistar (rat) thoracic aorta assessed as relaxation of KCl-induced vasoconstriction after 30 min relative to control; type: tissue-based
[2] = molecular target: T1, Voltage-gated L-type calcium channel; assay: Inhibition of L-type calcium channel in neonatal rat cortical neurons assessed as inhibition of veratridine-induced intracellular calcium level incubated for 30 min followed by veratridine induction for 2 min by fluorimetric analysis; type: cell-based
[3] = molecular target: T1, Voltage-gated L-type calcium channel; assay: Inhibition of L-type calcium channel in Rattus norvegicus Wistar (rat) thoracic aorta assessed as relaxation of phenylephrine-induced vasoconstriction after 30 min relative to control; type: tissue-based

IC50 [1]	pIC50 [1]	IC50 [2]	IC50 [3]	pIC50 [3]	SMILES
1.25 µM	5.9	–	–	–	CCOC(=O)C1=C(C)NC(C)=C(C(=O)OC)C1c1cccc(OCC(=O)N2CCCCC2)c1 (configuration not stated)
12.8 µM	4.89	–	–	–	CCOC(=O)C1=C(C)NC(C)=C(C(=O)OC)C1c1ccc(OCC(=O)OC)c(OC)c1 (configuration not stated)
3.89 µM	5.41	–	–	–	CCOC(=O)C1=C(C)NC(C)=C(C(=O)OC)C1c1ccc(OCC(=O)N2CCCCC2)c(OC)c1 (configuration not stated)
–	–	5.6 µM	0.83 µM	6.08	COC(=O)C1=C(C)NC(C)=C(C(=O)OC)C1c1ccc(OCC(=O)N2CCCC2)c(OC)c1
–	–	10 µM	–	–	COC(=O)C1=C(C)NC(C)=C(C(=O)OC)C1c1ccc(OCC(=O)N2CCCCC2)c(OC)c1
–	–	10.1 µM	–	–	COC(=O)C1=C(C)NC(C)=C(C(=O)OC)C1c1ccc(OCC(=O)n2ccnc2)c(OC)c1
–	–	2.5 µM	–	–	COC(=O)C1=C(C)NC(C)=C(C(=O)OC)C1c1ccc(OCC(=O)NC(C)(C)C)c(OC)c1
–	–	10 µM	1.73 µM	5.76	COC(=O)C1=C(C)NC(C)=C(C(=O)OC)C1c1ccc(OCC(=O)N2CCCC(C)C2)c(OC)c1 (configuration not stated)
–	–	2.1 µM	–	–	COC(=O)COc1ccc(C2C(C(=O)OC)=C(C)NC(C)=C2C(=O)OC)cc1
–	–	10 µM	1.44 µM	5.84	COC(=O)COc1cccc(C2C(C(=O)OC)=C(C)NC(C)=C2C(=O)OC)c1
–	–	9.9 µM	0.64 µM	6.19	COC(=O)C1=C(C)NC(C)=C(C(=O)OC)C1c1cccc(OCC(=O)N2CCOCC2)c1
–	–	3.6 µM	4.57 µM	5.34	COC(=O)C1=C(C)NC(C)=C(C(=O)OC)C1c1cccc(OCC(=O)N2CCCC2)c1
–	–	10 µM	–	–	COC(=O)C1=C(C)NC(C)=C(C(=O)OC)C1c1cccc(OCC(=O)N2CCCCC2)c1

SMILES	IC50 [1]	pIC50 [1]	IC50 [2]	IC50 [3]	pIC50 [3]
COC(=O)C1=C(C)NC(C)=C(C(=O)OC)C1c1ccc(OCC(=O)N2CCN(C)CC2)c(OC)c1	–	–	9.1 µM	6.91 µM	5.16
COC(=O)C1=C(C)NC(C)=C(C(=O)OC)C1c1cccc(OCC(=O)N2CCN(C)CC2)c1	–	–	10 µM	9.54 µM	5.02
